{"source": "patent US11433090B2", "about": "“mTOR-inhibitor-containing medicine for treating or preventing ophthalmic symptoms, disorders, or diseases, and application thereof” (The Doshisha, priority 2017, dated 2022)", "system": "S6K", "assay": "Western blot of S6K phosphorylation after TGF-β2 stimulation in iFECD", "assay_type": "cell-based, human", "conditions": "3 pmol mTOR siRNA, FIG. 6", "method": "The medium was removed from a culture dish in which iFECDs were being cultured, and the cells were supplemented with 1×PBS (−) that was preheated to 37° C., and were washed. This was repeated twice. The cells were supplemented again with 1×PBS (−) and incubated for 3 minutes at 37° C. (5% CO2). After removing the PBS (−), the cells were supplemented with 0.05% Trypsin-EDTA (Nacalai Tesque, 32778-34) and incubated for 5 minutes at 37° C. (5% CO2). The cells were then suspended in a medium, and collected by centrifugation at 1500 rpm for 3 minutes. DMEM (Nacalai Tesque, 08456-36)+10% FBS (Biowest, S1820-500)+1% P/S (Nacalai Tesque, 26252-94) was used as the medium.\niFECDs were seeded on a 12-well plate at a ratio of 7×10^4 cells per well and cultured for 24 hours at 37° C. (5% CO2) (DMEM+10% FBS+1% P/S was used as the medium). After 24 hours, the medium was removed. Rapamycin was added to culture the cells for 24 hours. (DMEM+2% FBS+1% P/S was used as the medium). After 24 hours, the medium was removed. A medium containing 10 ng/ml of Recombinant Human TGF-β2 (Wako, 200-19911) and rapamycin was added to culture the cells for 24 hours. […]\n8 μg of the extracted protein was separated by SDS-PAGE and transferred onto a nitrocellulose membrane. […] The detected band strength was analyzed with a lumino image analyzer LAS-4000 mini (Fuji Film) and ImageQuant™ software (GE Healthcare). […]", "data": [{"substance": "mTOR siRNA: siRNA against mTOR gene (Ambion, AS026M0L); sense strand SEQ ID NO: 1, antisense strand SEQ ID NO: 2 (sense CAUUCGCAUUCAGUCCAUATT; antisense UAUGGACUGAAUGCGAAUGAT; chemistry not given here)", "values": [{"measurement": "phosphorylation of S6K at protein level, western blot", "value": "suppressed"}]}]}
